Experimental data: ChEMBL document CHEMBL1201862, “PubChem BioAssay data set” (2004)
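Following 48 hours of exposure in 96-well plates, responses at five concentrations were used to interpolate endpoints linearly. GI50 = concentration required for 50% inhibition of growth.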 Active and inactive are the calls of the source. Rule as the data show it: active = GI50 up to about 1.1 µM and inactive = higher.

Key:
Assay in all cases: NCI anticancer screen, dose series, 48 h
SK-OV-3 = test system: SK-OV-3
CCRF-CEM = test system: CCRF-CEM
T47D = test system: T47D
IGROV-1 = test system: IGROV-1
OVCAR-5 = test system: OVCAR-5
SN12C = test system: SN12C
MDA-MB-435 = test system: MDA-MB-435
OVCAR-4 = test system: OVCAR-4
EKVX = test system: EKVX
NCI-H460 = test system: NCI-H460
LOX IMVI = test system: LOX IMVI
TK-10 = test system: TK-10
NCI/ADR-RES = test system: NCI/ADR-RES
Hs-578T = test system: Hs-578T
HOP-62 = test system: HOP-62
KM12 = test system: KM12
UACC-62 = test system: UACC-62
HCC 2998 = test system: HCC 2998
SK-MEL-2 = test system: SK-MEL-2
SF-295 = test system: SF-295
DU-145 = test system: DU-145
HOP-92 = test system: HOP-92
U-251 = test system: U-251
HT-29 = test system: HT-29
RPMI-8226 = test system: RPMI-8226
MCF7 = test system: MCF7
HL-60 = test system: HL-60
HCT-15 = test system: HCT-15
RXF 393 = test system: RXF 393
SK-MEL-28 = test system: SK-MEL-28
OVCAR-8 = test system: OVCAR-8
BT-549 = test system: BT-549
ACHN = test system: ACHN
A549 = test system: A549
OVCAR-3 = test system: OVCAR-3
CAKI-1 = test system: CAKI-1
SNB-75 = test system: SNB-75
A498 = test system: A498
MDA-MB-231 = test system: MDA-MB-231
SW-620 = test system: SW-620
MDA-N = test system: MDA-N
PC-3 = test system: PC-3
NCI-H522 = test system: NCI-H522
NCI-H226 = test system: NCI-H226
MOLT-4 = test system: MOLT-4
K562 = test system: K562
UACC-257 = test system: UACC-257
M14 = test system: M14
SR = test system: SR
SNB-19 = test system: SNB-19
SF-539 = test system: SF-539
SK-MEL-5 = test system: SK-MEL-5
786-0 = test system: 786-0
HCT-116 = test system: HCT-116
Malme-3M = test system: Malme-3M
NCI-H23 = test system: NCI-H23
COLO 205 = test system: COLO 205
SF-268 = test system: SF-268
UO-31 = test system: UO-31

O=C1C(CN2CCCC2)CCCC1CN1CCCC1 (stereo not drawn)
GI50 (SK-OV-3): 17.4 µM (inactive) | GI50 (CCRF-CEM): 0.0318 µM (active) | GI50 (T47D): 2.56 µM (inactive) | GI50 (IGROV-1): 17.1 µM (inactive) | GI50 (OVCAR-5): 5.98 µM (inactive) | GI50 (SN12C): 17.1 µM (inactive) | GI50 (MDA-MB-435): 2.76 µM (inactive) | GI50 (OVCAR-4): 5.75 µM (inactive) | GI50 (EKVX): 3.52 µM (inactive) | GI50 (NCI-H460): 22.8 µM (inactive) | GI50 (LOX IMVI): 2.52 µM (inactive) | GI50 (TK-10): 2.19 µM (inactive) | GI50 (NCI/ADR-RES): 6.1 µM (inactive) | GI50 (Hs-578T): 28 µM (inactive) | GI50 (HOP-62): > 49.8 µM (inactive) | GI50 (KM12): 19.7 µM (inactive) | GI50 (UACC-62): 16.9 µM (inactive) | GI50 (HCC 2998): 18.3 µM (inactive) | GI50 (SK-MEL-2): 18.5 µM (inactive) | GI50 (SF-295): > 38.7 µM (inactive) | GI50 (DU-145): 19.8 µM (inactive) | GI50 (HOP-92): 0.229 µM (active) | GI50 (U-251): 19.6 µM (inactive) | GI50 (HT-29): 14.7 µM (inactive) | GI50 (RPMI-8226): 0.9 µM (active) | GI50 (MCF7): 0.658 µM (active) | GI50 (HL-60): 0.326 µM (active) | GI50 (HCT-15): 2.19 µM | GI50 (RXF 393): 2.69 µM (inactive) | GI50 (SK-MEL-28): 3.85 µM (inactive) | GI50 (OVCAR-8): 4.37 µM (inactive) | GI50 (BT-549): 1.87 µM (inactive) | GI50 (ACHN): 1.82 µM (inactive) | GI50 (A549): 19.8 µM (inactive) | GI50 (OVCAR-3): 5.01 µM (inactive) | GI50 (CAKI-1): 1.64 µM (inactive) | GI50 (SNB-75): 19.7 µM (inactive) | GI50 (A498): 20.7 µM (inactive) | GI50 (MDA-MB-231): 15.8 µM (inactive) | GI50 (SW-620): 0.129 µM (active) | GI50 (MDA-N): 7.59 µM (inactive) | GI50 (PC-3): 18.2 µM (inactive) | GI50 (NCI-H522): 0.0495 µM (active) | GI50 (NCI-H226): 22.1 µM (inactive) | GI50 (MOLT-4): 0.258 µM (active) | GI50 (K562): 0.206 µM (active) | GI50 (UACC-257): 2.1 µM (inactive) | GI50 (M14): 1.74 µM (inactive) | GI50 (SR): 3.04 µM (inactive) | GI50 (SNB-19): > 100 µM (inactive) | GI50 (SF-539): 7.36 µM (inactive) | GI50 (SK-MEL-5): 16.6 µM (inactive) | GI50 (786-0): 1.07 µM (active) | GI50 (HCT-116): 1.8 µM (inactive) | GI50 (Malme-3M): 0.611 µM (active) | GI50 (NCI-H23): 1.95 µM (inactive) | GI50 (COLO 205): 1.53 µM (inactive) | GI50 (SF-268): 25.8 µM (inactive) | GI50 (UO-31): 0.791 µM (active)

Cc1ccc(NC(c2ccccc2)c2ccc3cccnc3c2O)cc1 (stereo not drawn)
GI50 (SK-OV-3): 7.91 µM (inactive) | GI50 (CCRF-CEM): 0.787 µM (active) | GI50 (T47D): 7.23 µM (inactive) | GI50 (IGROV-1): 4.09 µM (inactive) | GI50 (OVCAR-5): 7.11 µM (inactive) | GI50 (SN12C): 4.63 µM (inactive) | GI50 (MDA-MB-435): 5.87 µM (inactive) | GI50 (OVCAR-4): 3.85 µM (inactive) | GI50 (EKVX): 3.47 µM (inactive) | GI50 (NCI-H460): 2.58 µM (inactive) | GI50 (LOX IMVI): 3.6 µM (inactive) | GI50 (TK-10): 5.22 µM (inactive) | GI50 (NCI/ADR-RES): 2.79 µM (inactive) | GI50 (Hs-578T): 9.02 µM (inactive) | GI50 (HOP-62): 4.97 µM (inactive) | GI50 (KM12): 5.02 µM (inactive) | GI50 (UACC-62): 3.84 µM (inactive) | GI50 (HCC 2998): 16.4 µM (inactive) | GI50 (SK-MEL-2): 7.5 µM (inactive) | GI50 (SF-295): 3.72 µM (inactive) | GI50 (DU-145): 11.1 µM (inactive) | GI50 (HOP-92): 3.48 µM (inactive) | GI50 (U-251): 2.82 µM (inactive) | GI50 (HT-29): 2.9 µM (inactive) | GI50 (RPMI-8226): 2.61 µM (inactive) | GI50 (MCF7): 3.14 µM (inactive) | GI50 (HL-60): 2.04 µM (inactive) | GI50 (HCT-15): 2.64 µM | GI50 (RXF 393): 4.4 µM (inactive) | GI50 (SK-MEL-28): 9.29 µM (inactive) | GI50 (OVCAR-8): 2.64 µM (inactive) | GI50 (BT-549): 4.33 µM (inactive) | GI50 (ACHN): 3.67 µM (inactive) | GI50 (A549): 5.56 µM (inactive) | GI50 (OVCAR-3): 2.59 µM (inactive) | GI50 (CAKI-1): 5.11 µM (inactive) | GI50 (SNB-75): 6.37 µM (inactive) | GI50 (A498): 12.2 µM (inactive) | GI50 (MDA-MB-231): 4.55 µM (inactive) | GI50 (SW-620): 6.34 µM (inactive) | GI50 (MDA-N): 4.1 µM (inactive) | GI50 (PC-3): 3.66 µM (inactive) | GI50 (NCI-H522): 2.17 µM (inactive) | GI50 (NCI-H226): 2.7 µM (inactive) | GI50 (MOLT-4): 2.37 µM (inactive) | GI50 (K562): 3.02 µM (inactive) | GI50 (UACC-257): 9.79 µM (inactive) | GI50 (M14): 4.69 µM (inactive) | GI50 (SR): 2.44 µM (inactive) | GI50 (SNB-19): 6.37 µM (inactive) | GI50 (SF-539): 2.33 µM (inactive) | GI50 (SK-MEL-5): 3.97 µM (inactive) | GI50 (786-0): 3.61 µM (inactive) | GI50 (HCT-116): 3.23 µM (inactive) | GI50 (Malme-3M): 3.05 µM (inactive) | GI50 (NCI-H23): 5.79 µM (inactive) | GI50 (COLO 205): 4.68 µM (inactive) | GI50 (SF-268): 2.24 µM (inactive) | GI50 (UO-31): 3.33 µM (inactive)
